Test results reported in publication PMC7604171 (Journal of agricultural and food chemistry, 2020).
Values after ≈ are worked out from the molar mass of the structure shown. Values joined by “and” are separate entries in the source; they are usually repeats but may differ in a detail not shown here. Equal entries are not always repeated. Where two headings read alike, the source gives them in different places.

Experiments:
[1] = tested on: Cal-27 oral squamous cell carcinoma cell line; experiment: MTT anti-proliferation assay in Cal-27; format: cell-based; conditions: for IC50 anti-proliferation activity: Cal-27, MTT, triplicate; for IC50: Homo sapiens, read-out: IC50 anti-proliferation activity
[2] = tested on: SCC-9 oral squamous cell carcinoma cell line; experiment: MTT anti-proliferation assay in SCC-9; format: cell-based; conditions: for IC50 anti-proliferation activity: SCC-9, MTT, treatment period 72 hr, triplicate; for IC50: Homo sapiens, SCC-9, 72 h, read-out: IC50 anti-proliferation activity
[3] = in vivo; conditions: C57BL/6, mouse, iv, 5 mg/kg
[4] = Caco-2 monolayer apical to basolateral transport; format: in vitro ADME; conditions: human, Caco-2, pH 7.4
[5] = Oral pharmacokinetics of ME in corn oil in mice
[6] = I.V. pharmacokinetics of ME nanosuspension in mice
[7] = Oral pharmacokinetics of ME nanosuspension in mice; conditions: for absolute bioavailability (estimated): oral 60 mg/kg ME nanosuspension vs I.V. 5 mg/kg
[8] = mouse, in vivo, iv
[9] = tested on: CYP450 (mouse liver microsomes); experiment: Phase I CYP metabolism of MHNK to HNK in mouse liver microsomes; format: in vitro ADME, C57BL/6 mouse; conditions: 0.5 µM MHNK, after 60 min, 37 °C
[10] = tested on: CYP450 (mouse intestinal S9 fraction); experiment: Phase I CYP metabolism of MHNK to HNK in mouse intestinal S9 fraction; format: in vitro ADME, C57BL/6 mouse; conditions: MHNK 5, 1 and 0.5 µM, 60 min
[11] = tested on: Caco-2 cell monolayer; experiment: Caco-2 monolayer apical to basolateral transport; format: in vitro ADME; conditions: ME 0.05 mg/mL in HBSS pH 7.4, 37 °C, n=3
[12] = C57BL/6, mouse, in vivo, po, 60 mg/kg
[13] = C57BL/6, mouse, in vivo, iv, 5 mg/kg
[14] = oral 60 mg ME/kg in corn oil, mouse whole blood, n=5
[15] = oral 60 mg ME/kg in corn oil, n=5
[16] = I.V. 5 mg ME/kg, mouse whole blood, n=5
[17] = oral 60 mg ME/kg in nanosuspension, mouse whole blood, n=5
[18] = oral 60 mg ME/kg in nanosuspension, n=5

O=c1[nH]cc(F)c(=O)[nH]1 [5-FU, reference compound]
IC50 anti-proliferation activity ([1]; treatment period 72 hr): 0.4 ± 0.1 µg/mL (≈ 3.08 µM)
IC50 anti-proliferation activity [2]: 1.9 ± 0.4 µg/mL (≈ 14.6 µM)

C=CCc1ccc(O)c(-c2ccc(O)c(CC=C)c2)c1 [HNK, honokiol]
IC50 ([1]; CAL-27, 24 h): 20.8 ± 1.3 µg/mL (≈ 78.1 µM)
IC50 ([1]; CAL-27, 48 h): 12.2 ± 1 µg/mL (≈ 45.8 µM)
IC50 ([1]; CAL-27, 72 h): 6.6 ± 0.6 µg/mL (≈ 24.8 µM)
IC50 ([1]; CAL-27, 96 h): 4.2 ± 0.4 µg/mL (≈ 15.8 µM)
AUC(0-inf) [3]: 1150 ± 719 ng·h/mL
AUC(0-t) [3]: 1150 ± 719 ng·h/mL
Cmax [3]: 2400 ± 1040 ng/mL
Half-life [3]: 0.7 ± 0.04 h
MRT last [3]: 0.6 ± 0.1 h
clearance [3]: 20 mL/min/kg
Papp A→B at 4 h, 0.05 mg/mL [4]: 13.4 ×10⁻⁶ cm/s
IC50 [2]: 5.5 ± 0.6 µg/mL (≈ 20.7 µM)

C=CCc1ccc(O)c(-c2cc(CC=C)ccc2O)c1 [MGN, magnolol]
IC50 ([1]; CAL-27, 24 h): 20.7 ± 1.8 µg/mL (≈ 77.7 µM)
IC50 ([1]; CAL-27, 48 h): 11.9 ± 0.6 µg/mL (≈ 44.7 µM)
IC50 ([1]; CAL-27, 72 h): 5.1 ± 0.6 µg/mL (≈ 19.1 µM)
IC50 ([1]; CAL-27, 96 h): 4 ± 0.8 µg/mL (≈ 15 µM)
AUC(0-inf) [5, 12]: 37.8 ± 16.5 ng·h/mL
AUC(0-t) [5, 12]: 23.1 ± 5.3 ng·h/mL
Cmax [5, 12]: 9.4 ± 3.3 ng/mL
Half-life [5, 12]: 3.8 ± 2.3 h
MRT last [5, 12]: 2.3 ± 0.6 h
Tmax [5, 12]: 0.9 ± 0.7 h
AUC(0-inf) [6, 13]: 1230 ± 651 ng·h/mL
AUC(0-t) [6, 13]: 1230 ± 650 ng·h/mL
Cmax [6, 13]: 2280 ± 700 ng/mL
Half-life [6, 13]: 1 ± 0.3 h
MRT last [6, 13]: 0.8 ± 0.5 h
clearance [6, 13]: 13.3 mL/min/kg
V ([6]; I.V. 5 mg ME/kg, n=5): 1.0 ± 0.4 L/kg
AUC(0-inf) [7, 12]: 182 ± 28.8 ng·h/mL
AUC(0-t) [7, 12]: 176 ± 27.3 ng·h/mL
Cmax [7, 12]: 29.1 ± 10.4 ng/mL
Half-life [7, 12]: 5 ± 1.5 h
MRT last [7, 12]: 5.1 ± 0.6 h
Tmax [7, 12]: 2.2 ± 1.5 h
absolute bioavailability (estimated) [7]: < 2%
IC50 [2]: 7.9 ± 0.4 µg/mL (≈ 29.7 µM)

C=CCc1ccc(O)c(-c2cc(CC=C)ccc2OS(=O)(=O)O)c1 [MGN_Sulfate]
Half-life [8]: 2.2 ± 0.7 h
Tmax [8]: 6 ± 6 min

C=CCc1ccc(O)c(-c2ccc(OC)c(CC=C)c2)c1 [MHNK, 4-O-methylhonokiol]
IC50 anti-proliferation activity ([1]; treatment period 24 hr): 14.5 ± 0.9 µg/mL (≈ 51.7 µM)
IC50 anti-proliferation activity ([1]; treatment period 48 hr): 7.7 ± 0.8 µg/mL (≈ 27.5 µM)
IC50 anti-proliferation activity ([1]; treatment period 72 hr): 5.6 ± 1.4 µg/mL (≈ 20 µM)
IC50 anti-proliferation activity ([1]; treatment period 96 hr): 3.2 ± 0.3 µg/mL (≈ 11.4 µM)
MHNK metabolized to HNK [9]: 51 ± 23.9%
AUC0–24 [5, 14]: 9.6 ± 4.0 ng·h/mL
AUC0−∞ [5, 14]: 10.8 ± 3.0 ng·h/mL
Cmax [5, 14]: 3.7 ± 0.9 ng/mL
Tmax [5, 14]: 1.3 ± 0.6 h
Half-life [5, 15]: 1.4 ± 0.6 h
MRT0–24 [5, 15]: 1.8 ± 0.3 h
HNK formation from MHNK [10]: no HNK detected
AUC0–24 [6, 16]: 623.2 ± 358.8 ng·h/mL
AUC0−∞ [6, 16]: 631.1 ± 360.0 ng·h/mL
Cmax [6, 16]: 824.3 ± 309.5 ng/mL
Half-life [6, 16]: 3 h and 2.9 ± 2.1 h
CL ([6]; I.V. 5 mg ME/kg, n=5): 33.3 ± 26.7 mL/min/kg
MRT0–24 ([6]; I.V. 5 mg ME/kg, n=5): 1.5 ± 0.6 h
V ([6]; I.V. 5 mg ME/kg, n=5): 5.5 ± 1.7 L/kg
AUC0–24 [7, 17]: 79.9 ± 15.8 ^* hr*ng/mL
AUC0−∞ [7, 17]: 86.3 ± 15.7 ^* hr*ng/mL
Cmax [7, 17]: 14.3 ± 6.6 ng/mL
Tmax [7, 17]: 3.0 ± 2.0 h
Half-life [7, 18]: 7.1 ± 2.5 h
MRT0–24 [7, 18]: 5.9 ± 0.7 h
absolute bioavailability (estimated) [7]: 1.1% and < 2%
apical to basolateral permeability (Pab) [11]: 7.7 ± 0.4 × 10^−6 cm/sec
IC50 anti-proliferation activity [2]: 5.2 ± 1.3 µg/mL (≈ 18.5 µM)
